Reference: patent US20020107197A1, “Ligands for G protein coupled receptors and methods of using them” (priority 2000, published 2002)

Assays:
GPR4 [1] = biological target: T1, GPR4 (Homo sapiens, UniProt P46093); assay: Cell migration in modified Boyden chamber, GPR4-ires-GFP vs GFP Swiss 3T3 cells; assay type: cell-based; settings: for increase of cell migration over GFP-Swiss 3T3 cells: 100 nM, lower chamber only; for chemokinetic assay: cell motility vs controls: lipid 100 nM in both upper and lower chambers, GFP or GFP-GPR4 Swiss 3T3 cells
T1 construct: were used to generate full length GPR4, which was digested with EcoRI and Xba I and cloned into the pBs3HA vector; expressed in transfected cells
T1 sequence (P46093 whole entry): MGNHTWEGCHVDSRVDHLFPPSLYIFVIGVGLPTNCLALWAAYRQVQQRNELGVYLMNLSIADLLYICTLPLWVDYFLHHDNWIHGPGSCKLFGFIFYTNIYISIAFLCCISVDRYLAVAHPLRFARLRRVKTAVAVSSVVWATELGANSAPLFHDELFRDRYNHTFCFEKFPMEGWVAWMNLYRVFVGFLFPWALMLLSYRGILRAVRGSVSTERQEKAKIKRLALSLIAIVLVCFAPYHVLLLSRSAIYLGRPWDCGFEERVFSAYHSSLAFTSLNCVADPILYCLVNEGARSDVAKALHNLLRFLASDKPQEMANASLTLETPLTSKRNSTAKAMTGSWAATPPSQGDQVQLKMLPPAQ
Procedure: Chemotaxis was measured in a modified Boyden chamber assay. Briefly, different lipids were added to the lower chambers. GPR4-ires-GFP- and GFP-Swiss 3T3 cells were serum starved for 4 h, trypsinized, and seeded in the upper chambers of Boyden-transwell plates (Corning Inc., Corning, N.Y.). The chambers were incubated for 6 to 8 h. The number of cells that migrated to the lower face of the membrane was counted in 4 random fields. Data are represented as the average ±SD of three independent experiments. For the chemokinetic assay, the same concentrations of lipids were added to both the upper and lower chambers. For Rho inhibition studies, C3-exoenxyme was transiently transfected into Swiss 3T3 cells and cell migration assays were performed 48 hours later.

[2] = system: vector-transfected HEK293 cells; assay: SRE luciferase reporter in vector-transfected HEK293 cells; assay type: cell-based, human
Procedure: The serum-response element (SRE) reporter system is a sensitive assay for receptors of lipid factors (An et al. (1998) J Biol Chem 273, 7906-7910; An et al. (1999) Mol Pharmacol 55, 787-794). The SRE reporter system used herein (pSRE-Luc) was a gift from Dr. Songzhu An (UCSF), or may be purchased from Stratagene (La Jolla, Calif.). Both systems give identical results. HEK293 and HEK293GPR4 cells were cultured in RPMI1640 with 10% FBS in 10 cm dishes to ˜85% confluence. To the cells in each dish, pSRE-Luc (10 μg) was transfected in the presence of 60 μl LipofectAMINE reagent. Cells were seeded in 96-well plates 16 h after transfection, incubated for another 24 h in RPMI1640 with 10% FBS, and starved in serum-free medium for 16 h. SPC (dissolved in PBS to 10 mM) and other lipids (LPCs were dissolved in 70% ethanol. Other lipids were dissolved in PBS, 70-95% ethanol, or 100% MeOH) were diluted in serum free RPMI 1640 and added to the cells, followed by a 10 h incubation. Luciferase activity was measured in Microlite™ 1 plates (DYNEX Technologies, Inc., Virginia) using 60 μl of cell lysate and 20 μl luciferase substrate. PTX (100 ng/ml) was added during the 16 h serum starvation period and pcDNA1-C3 (encoding the C3-exoenzyme, 2 μg) was co-transfected with pSRE-Luc (10 μg). All experiments were performed in quadruplicate and were repeated at least three times. The Student's t test was performed using the GraphPad Instat software (San Diego, Calif.). p<0.05 was considered to be statistically significant.

GPR4 [3] = biological target: T1, GPR4; assay: Internalization of GPR4-GFP in HEK293 cells (confocal microscopy); assay type: cell-based; settings: 1 μM lipid, 37° C., GPR4-GFP HEK293 cells
Procedure: pGPR4-GFP stably expressing HEK293 cells were cultured in 6 cm tissue culture dishes in RPMI1640 with 10% FBS. After 16-24 h serum starvation, cells were treated with different lipids at 37° C. for 2 h. Cells were washed with cold PBS and fixed with 4% paraformaldehyde in PBS. The subcellular localization of GPR4-GFP protein was visualized under a Leica TV confocal fluorescence microscope with a 63× oil immersion lens (Wetzler, Heidelberg, Germany). The excitation and emission wavelengths were 488 nm and 515-540 nm, respectively.
G protein coupled receptors undergo agonist-dependent desensitization and internalization. When HEK293 cells are transfected with the pEGFP-N1 vector, GFP protein is expressed in the cytosol of the cells. The GPR4-GFP and TDAG8-GFP fusion proteins, on the other hand, was expressed only on the plasma membrane.

TDAG8 [4] = biological target: T2, TDAG8 (Homo sapiens, UniProt Q8IYL9); assay: SRE luciferase reporter in TDAG8-transfected HEK293 cells; assay type: cell-based; settings: lipid 1 μM, TDAG8-transfected HEK293 cells
T2 construct: expressed in transfected cells
T2 sequence (Q8IYL9 whole entry): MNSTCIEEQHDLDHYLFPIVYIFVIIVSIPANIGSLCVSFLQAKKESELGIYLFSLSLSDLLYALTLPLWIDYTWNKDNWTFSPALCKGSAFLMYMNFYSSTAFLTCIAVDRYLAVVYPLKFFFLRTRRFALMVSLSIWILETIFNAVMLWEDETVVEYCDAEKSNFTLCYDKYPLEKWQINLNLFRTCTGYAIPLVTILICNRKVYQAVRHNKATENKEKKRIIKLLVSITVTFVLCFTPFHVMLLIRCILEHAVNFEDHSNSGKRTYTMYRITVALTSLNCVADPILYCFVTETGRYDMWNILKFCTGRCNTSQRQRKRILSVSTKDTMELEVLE

endogenous PAF receptor = biological target: T3, endogenous PAF receptor (Homo sapiens, UniProt P25105); assay: Calcium assay of the endogenous PAF receptor in MCF10A cells; assay type: cell-based; settings: parental MCF10A cells
T3 construct: endogenous in cells; host or cells: MCF10A (parental and GPR4-GFP-transfected)
T3 sequence (P25105 whole entry): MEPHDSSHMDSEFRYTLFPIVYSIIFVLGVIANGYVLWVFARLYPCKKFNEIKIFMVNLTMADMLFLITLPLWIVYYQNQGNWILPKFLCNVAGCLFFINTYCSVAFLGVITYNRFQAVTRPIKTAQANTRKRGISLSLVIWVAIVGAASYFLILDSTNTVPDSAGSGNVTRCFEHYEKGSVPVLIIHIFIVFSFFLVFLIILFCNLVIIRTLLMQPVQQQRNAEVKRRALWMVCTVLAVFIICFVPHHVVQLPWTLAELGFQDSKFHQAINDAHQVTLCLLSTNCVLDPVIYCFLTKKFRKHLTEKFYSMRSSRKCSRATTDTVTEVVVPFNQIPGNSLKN
Procedure: Measurement of [Ca^2+]i, was performed as described previously in Xu et al. (2000) Nat Cell Biol 2, 261-267. Briefly, pGPR4-GFP-transfected MCF10A cells were grown in specialized glass-bottom dishes (Bioptech, Inc., Butler, Pa.) and loaded with fura-2 in HEPES buffered saline. Using a dual-wavelength spectrofluorometer (RFK-6002, Photon Technology Int'l, So. Brunswick, N.J.) coupled to an inverted fluorescence microscope (Olympus, IX-70, Lake Success, N.Y.), GFP-positive cells were identified using an excitation wavelength of 488 nm, a dichroic 505 nm long-pass filter and an emitter filter at bandpass of 535 nm (Chroma Technology, Brattleboro, Vt.). Measurements of [Ca^2+]i were performed on individual GPR4-GFP positive cells at excitation wavelengths of 340 and 380 nm and an emission wavelength of 510 nm. Conversion of the 340/380 ratio value into [Ca^2+]i in nM was estimated by comparing the cellular fluorescence ratio with ratios acquired using fura-2 (free acid) in buffers containing known Ca^2+ concentrations. [Ca^2+]i was then calculated as described by Grynkiewicz et al. (1985) J Biol Chem 260, 3440-3450. All calcium assays were performed in the presence of 1 mM EGTA in the assay buffers. Therefore, intracellular calcium release, not calcium influx, was analyzed.
Therefore, it is unlikely that the increase in calcium induced by LPC was mediated by a PAF receptor.

TDAG8 [5] = biological target: T2, TDAG8; assay: TDAG8 receptor internalization; assay type: cell-based
From the text: G protein coupled receptors undergo agonist-dependent desensitization and internalization.

Which “increase of cell migration over GFP-Swiss 3T3 cells” value (GPR4 [1]) does the source give for CCCCCCCCCCCCCCCC(=O)OC[C@@H](O)COP(=O)([O-])OCC[N+](C)(C)C [16:0-LPC] here?
Its value is 1.7 fold.

And the “chemokinetic assay: cell motility vs controls” value (GPR4 [1])?
The value was “did not significantly change cell motility”.

And the “transcriptional activation of SRE (in words)” value [2]?
The value was “not”.

And the “internalization of GPR4” value (GPR4 [3])?
Its value is “induced internalization of GPR4”.

And the “activation of SRE reporter” value (TDAG8 [4])?
The value was 3.1 fold.

CCCCCCCCCCCCC/C=C/[C@@H](O)[C@@H](N)COP(=O)([O-])OCC[N+](C)(C)C [SPC, Sphingosylphosphorylcholine] was tested. Which “calcium increase through the endogenous PAF receptor in parental cells” value (endogenous PAF receptor) did it give?
Its value is “not able to induce an increase in calcium”.

And the “increase of cell migration over GFP-Swiss 3T3 cells” value (GPR4 [1])?
Its value is 2.0 fold.

And the “chemokinetic assay: cell motility vs controls” value (GPR4 [1])?
Its value is “did not significantly change cell motility”.

And the “activation of SRE reporter” value ([2]; lipid 1 μM)?
The value was at most 1.5 fold.

And the “internalization of GPR4” value (GPR4 [3])?
The value was “induced internalization of GPR4”.

What about the TDAG8 receptor internalization (TDAG8 [5]) of the same compound?
The TDAG8 receptor internalization was “induced TDAG8 receptor internalization”.

What about the “activation of SRE reporter” value (TDAG8 [4]) of the same compound?
The value was 4 fold.

For lysophosphatidylcholine [LPC], which “calcium increase through the endogenous PAF receptor in parental cells” value (endogenous PAF receptor) is on record?
Its value is “not able to induce an increase in calcium”.

What about the TDAG8 receptor internalization (TDAG8 [5]) of the same compound?
Its TDAG8 receptor internalization is “not”.
